Measurements published in US20090069321A1, “CYANOMETHYL SUBSTITUTED N-ACYL TRYPTAMINES” (priority 2007, published 2009).

biological target: T1, human FSH receptor (Homo sapiens, UniProt P23945); assay: HTRF assay for measuring cAMP in cells (FSH antagonism); assay type: cell-based; conditions: hFSHR clone 16 cells (CHO cells stably transfected with the human FSH receptor); in the presence of 1e-9 mol/l hFSH; 37° C. for 2 h; read-out: IC50, FSH antagonistic effect in the HTRF assay
T1 construct: expressed in transfected cells; host or cells: CHO cells (hFSHR clone 16)
T1 sequence (P23945 18-695): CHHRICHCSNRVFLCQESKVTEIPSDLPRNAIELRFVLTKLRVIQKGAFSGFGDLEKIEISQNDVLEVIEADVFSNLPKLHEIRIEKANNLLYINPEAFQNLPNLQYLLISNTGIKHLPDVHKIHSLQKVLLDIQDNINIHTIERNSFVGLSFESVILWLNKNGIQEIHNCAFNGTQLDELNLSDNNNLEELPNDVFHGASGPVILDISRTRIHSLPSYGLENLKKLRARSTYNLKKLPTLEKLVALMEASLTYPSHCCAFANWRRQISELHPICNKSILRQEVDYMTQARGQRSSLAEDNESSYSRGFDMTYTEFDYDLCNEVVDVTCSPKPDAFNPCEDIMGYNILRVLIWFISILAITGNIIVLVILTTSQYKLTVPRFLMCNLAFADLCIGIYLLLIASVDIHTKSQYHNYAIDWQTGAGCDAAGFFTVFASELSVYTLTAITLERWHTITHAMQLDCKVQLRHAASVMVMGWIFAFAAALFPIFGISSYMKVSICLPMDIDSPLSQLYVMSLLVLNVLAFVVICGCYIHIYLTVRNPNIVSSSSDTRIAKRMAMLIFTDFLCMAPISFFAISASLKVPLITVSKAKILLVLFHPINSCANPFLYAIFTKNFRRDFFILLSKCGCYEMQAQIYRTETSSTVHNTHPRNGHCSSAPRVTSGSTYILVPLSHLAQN
Protocol: HTRF Assay for Measuring cAMP in Cells
The method is based on a competitive immunoassay between native cAMP, which has been produced by the cells, and cAMP which is labelled with cAMPD2 conjugate. The tracer binding was visualized by a monoclonal antibody, anti-cAMP labelled with cryptate [HTRF=homogeneous time-resolved fluorescence].
The specific signal is inversely proportional to the cAMP concentration of the samples employed.
The 665 nm/620 nm fluorescence ratio was evaluated.
The following material was used: 96-well plates for the tissue culture, 96-well plates with black edge and black base (e.g. Fluotrac 600 from Greiner), 96-well plates for the substance dilutions of polypropylene and cAMP Femtomolar (4000wells Kit, CIS Bio International # 62AM5PEJ).
The following reagents were used: BSA (bovine serum albumin) Fraction V protease-free, IBMX (3-isobutyl-1-methylxanthine), hFSH (human follicle stimulating hormone), Triton X-100 analytical grade, potassium fluoride analytical grade, G 418 (Geneticin) and Accutase.
Buffer 1 (washing and testing buffer) contained PBS, 1 mM CaCl2, 1 mM MgCl2, 0.2% glucose; 0.1% BSA, 1 mM IBMX.
Buffer 2 (2× lysis buffer) contained 1% Triton X-100 in PBS (without CaCl2 and MgCl2).
Buffer 3 (assay buffer) contained 50 mM potassium phosphate buffer (pH 7.0); 800 mM potassium fluoride; 0.2% BSA (always added fresh).
On day 1, the cells were seeded in 96-well plates (3×10^4 cells per well hFSHR clone 16 cells (CHO cells stably transfected with the human FSH receptor in 150 μl of medium). The next day, test substance dilutions were made up. For this purpose, all the substances were diluted in ice-cold buffer 1 (with or without hFSH), and the substance dilutions were placed on ice until applied to the cells.
The cell supernatant was then aspirated off, and the cells were washed 2× with 200 μl of buffer 1. The cells were treated with 60 μl of the appropriate substance concentrations at 37° C. for 2 h. The cells were then lysed with 60 μl of buffer 2 (put onto the supernatant) (on a plate shaker at RT for 30 min).
The test conjugates (cAMP-D2 and anti-cAMP cryptate, CIS Bio) were diluted in buffer 3 in accordance with the manufacturers' information. The actual mixture for measurement was pipetted into a black 96-well plate (in each case 15 μl of the cell lysate diluted with 35 μl of buffer 1; firstly 25 μl of cAMP-D2 conjugate were pipetted and, after 10 min, 25 μl of the anti-cAMP cryptate were added). This is followed by incubation at RT for 90 minutes. The measurement was carried out in a PheraStar (BMG).
Tissue Culture Conditions
Dose-effect curve (hFSH) for the human receptor: 1e-8, 3e-9, 1e-9, 3e-10, 1e-10, 3e-11, 1e-11, 3e-12 mol/l.
The test substances were employed in suitable dilutions in the absence (test for agonism) and in the presence of 1e-9 mol/l hFSH.
The values of the well ratio were averaged and then entered directly in SigmaPlot versus the concentrations. The maximum and minimum values were determined for each plate, and half the difference is to be regarded as IC50.

Compared with `CNC(=O)c1ccc(C#Cc2ccc(OC(C)C)c(C(=O)NC(CC#N)Cc3c[nH]c4ccccc34)c2)cc1` (stereo not shown) [Example 9, N-[2-Cyano-1-(1H-indol-3-ylmethyl)-ethyl]-2-isopropoxy-5-(4-methylcarbamoyl-phenylethynyl)-benzamide], `CC(C)Oc1ccc(C#Cc2ccc(C(N)=O)cc2)cc1C(=O)NC(CC#N)Cc1c[nH]c2ccccc12` (stereo not shown) [Example 8, 5-(4-Carbamoyl-phenylethynyl)-N-[2-cyano-1-(1H-indol-3-ylmethyl)-ethyl]-2-isopropoxy-benzamide] is 3.8-fold lower in IC50: 750 nM for the first, 200 nM for the second.

Going from `CNC(=O)c1ccccc1C#Cc1ccc(OC(C)C)c(C(=O)NC(CC#N)Cc2c[nH]c3ccccc23)c1` (stereo not shown) [Example 11, N-[2-Cyano-1-(1H-indol-3-ylmethyl)-ethyl]-2-isopropoxy-5-(2-methylcarbamoyl-phenylethynyl)-benzamide] to `CNC(=O)c1cccc(C#Cc2ccc(OC(C)C)c(C(=O)NC(CC#N)Cc3c[nH]c4ccccc34)c2)c1` (stereo not shown) [Example 10, N-[2-Cyano-1-(1H-indol-3-ylmethyl)-ethyl]-2-isopropoxy-5-(3-methylcarbamoyl-phenylethynyl)-benzamide], the IC50 falls from 10000 nM to 3500 nM (2.9-fold).

Going from `CC(C)Oc1ccc(-c2ccc(C(=O)N3CCOCC3)c(Cl)c2)cc1C(=O)NC(CC#N)Cc1c[nH]c2ccccc12` (stereo not shown) [Example 6, 3′-Chloro-4-isopropoxy-4′-(morpholine-4-carbonyl)-biphenyl-3-carboxylic acid [2-cyano-1-(1H-indol-3-ylmethyl)-ethyl]-amide] to `CNC(=O)c1cc(F)cc(-c2ccc(OC(C)C)c(C(=O)NC(CC#N)Cc3c[nH]c4ccccc34)c2)c1` (stereo not shown) [Example 1, 5′-Fluoro-4-isopropoxy-biphenyl-3,3′-dicarboxylic acid 3-{[2-cyano-1-(1H-indol-3-ylmethyl)-ethyl]-amide}3′-methylamide], the IC50 rises from 80 nM to 3500 nM (44-fold).

With `Cc1cc(C(N)=O)ccc1C#Cc1ccc(OC(F)(F)F)c(C(=O)NC(CC#N)Cc2c[nH]c3ccccc23)c1` (stereo not shown) [Example 4, 5-(4-Carbamoyl-2-methylphenylethynyl)-N-[2-cyano-1-(1H-indol-3-ylmethyl)-ethyl]-2-trifluoromethoxy-benzamide] the IC50 was 250 nM.
